Results on two molecules are retold here after patent publication US9585875B2, “TRPM8 antagonists” (Dompé S.P.A., priority 2011, dated 2017).

Data set [1] deals with T1, human Muscarinic M3 Receptor (Homo sapiens, UniProt P20309).
T1 construct: expressed in transfected cells; host or cells: HEK293 or CHO
The experiment in a line: Radioligand binding assay. As to conditions: read-out: percentage of control binding value (% B). How it is done:
(§1) The objective of this study was to evaluate the in vitro effects of compounds 10 and 45 on cloned human GPCRs (G-protein coupled receptors) expressed in HEK293 or CHO cells using radioligand binding assays (compound concentration=10 μM).
(§2) Three replicates were performed for each experiment.
(§3) For each assay a concentration-response curve of the appropriate reference compound was performed in each experiment. The sample radioactivity content was measured after the addition of the scintillation cocktail Microscint 20 (PerkinElmer), by a microplate scintillation Beta-counter TopCount NXT (PerkinElmer). The atomic disintegrations per minutes evaluated with the beta counter were about 15 times higher than those found using the gamma counter. Data are expressed as percentage of control binding value (% B) and test compound inhibition was considered significant when % B was <75% at 10 μM.

For data set [2], the target named is T2, human Muscarinic M2 Receptor (Homo sapiens, UniProt P08172).
T2 construct: expressed in transfected cells; host or cells: HEK293 or CHO
T2 sequence (P08172 whole entry): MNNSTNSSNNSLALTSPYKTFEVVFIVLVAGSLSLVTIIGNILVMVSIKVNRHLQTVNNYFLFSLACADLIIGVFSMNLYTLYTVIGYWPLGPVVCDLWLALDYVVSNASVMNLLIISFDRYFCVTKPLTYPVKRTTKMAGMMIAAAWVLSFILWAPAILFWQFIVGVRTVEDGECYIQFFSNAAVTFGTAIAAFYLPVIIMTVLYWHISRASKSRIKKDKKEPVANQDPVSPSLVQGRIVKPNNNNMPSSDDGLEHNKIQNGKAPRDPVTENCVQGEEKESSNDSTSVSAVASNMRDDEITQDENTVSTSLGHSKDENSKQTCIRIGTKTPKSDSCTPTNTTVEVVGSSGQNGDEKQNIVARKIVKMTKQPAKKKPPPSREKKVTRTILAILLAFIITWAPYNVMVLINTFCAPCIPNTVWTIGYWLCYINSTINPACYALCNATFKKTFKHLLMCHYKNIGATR
The data set is described as follows: Radioligand binding assay. The conditions noted are these: read-out: percentage of control binding value (% B). Here is the method: as §1, §2, §3

Data set [3] concerns the target T3, human Adrenergic β1 Receptor (Homo sapiens, UniProt P08588).
T3 construct: expressed in transfected cells; host or cells: HEK293 or CHO
The data set is described as follows: Radioligand binding assay. The conditions noted are these: read-out: percentage of control binding value (% B). How it is done:
as §1, §2, §3

The target of data set [4] is T4, human Cannabinoid CB2 Receptor (Homo sapiens, UniProt P34972).
T4 construct: expressed in transfected cells; host or cells: HEK293 or CHO
T4 sequence (P34972 whole entry): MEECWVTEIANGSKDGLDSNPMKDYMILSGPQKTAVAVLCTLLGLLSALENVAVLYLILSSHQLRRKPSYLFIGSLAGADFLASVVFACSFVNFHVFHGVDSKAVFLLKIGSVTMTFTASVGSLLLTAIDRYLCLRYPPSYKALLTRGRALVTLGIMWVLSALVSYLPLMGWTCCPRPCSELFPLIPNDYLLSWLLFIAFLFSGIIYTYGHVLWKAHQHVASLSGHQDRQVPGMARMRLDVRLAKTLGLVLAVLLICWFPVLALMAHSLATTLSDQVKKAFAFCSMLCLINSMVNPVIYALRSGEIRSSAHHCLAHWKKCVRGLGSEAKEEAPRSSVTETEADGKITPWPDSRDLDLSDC
The experiment in a line: Radioligand binding assay. The conditions noted are these: read-out: percentage of control binding value (% B). Here is the method: as §1, §2, §3

Data set [5] is described as follows: Pharmacokinetic profile in rat. The class given is in vivo. The conditions noted are these: plasma; for half-life: iv, read-out: t1/2 i.v. rat.
The target in a further data set is TRPV4 (Homo sapiens, UniProt Q9HBA0). The experiment in a line: Calcium influx counterassay, agonist GSK1016790A. The class given is cell-based. As to conditions: 10 μM GSK1016790A = 100%, read-out: Normalized % inhibition (TRPV4); for inhibition at 1 µM: Test Conc. 1 uM; for inhibition at 10 µM: Test Conc. 10 uM. Here is the method:
In parallel, the ability of each test compound to act as an antagonist of TRPV4 was evaluated with a calcium influx assay.

Another data set concerns the target CYP 3A4 (Homo sapiens, UniProt P08684). The data set is described as follows: CYP inhibition. The class given is in vitro ADME.
Data set [6] in a line: Plasma Protein Binding. It counts as in vitro ADME. As to conditions: rat.
A further data set addresses CYP 1A2 (Homo sapiens, UniProt P05177). The data set is described as follows: CYP inhibition. The class given is in vitro ADME.
Data set [7] has as its target T5, TRPM8 (Homo sapiens, UniProt Q7Z2W7). The experiment in a line: cell-based.
Text: Values were considered significant if the test compound mean was three or more standard deviations away from the positive control agonist mean.
Another data set has as its target CYP 2C19 (Homo sapiens, UniProt P33261). The experiment in a line: CYP inhibition. The class given is in vitro ADME.
The nature of data set [8]: Plasma Protein Binding. The conditions noted are these: human. It counts as in vitro ADME.
For data set [9], the target named is T5, TRPM8. The experiment in a line: HTS cell-based Ca2+ mobilization assay (FLIPR TETRA) in HEK293/hTRPM8 cells, agonist Cooling Agent 10. On the set-up: expressed in transfected cells. As to conditions: HEK293/hTRPM8, Cooling Agent 10 at EC80. The text has this:
A functional cell-based assay for the identification of TRPM8 receptor antagonists, optimised to allow high throughput screening at FLIPR^TETRA, was developed in HEK293 cells by stable pure clone selection and functional characterization with a fluorescent calcium sensitive dye.
TRPM8 was cloned into the multiple cloning site of pcDNA3 mammalian expression vector; the obtained construct pcDNA3/hTRPM8 was fully sequence verified and used for the transfection of HEK293 cell line. HEK293 cells stably transfected with TRPM8 gene were maintained in Minimum essential medium. The cells were transfected with the pcDNA3/hTRPM8 vector by electroporation and then selected with medium containing 0.8 mg/ml G418 for 10-15 days.
The following commercial compounds were used as ligands:
Activator: Cooling Agent 10 (Takasago CAS N. 87061-04-9)
Blocker: Capsazepine (SIGMA cat #D_5879)
The experimental activities were performed using FLIPR^TETRA instruments.
HEK293 cells stably transfected with TRPM8 gene were maintained in Minimum essential medium.
The TRPM8 cell line was analysed for the response to a library of compounds using a Ca^2+ mobilization-dependent fluorescence signal in 384 wells microtiter plate format. The analysis was performed using the FLIPR^TETRA (MDC) with the ICCD Camera.
The execution of the assay involved the use of three microtiter plates:
1. Assay plate, containing cells loaded with dye and prepared as follows:
Cells were seeded at 15000 c/well in Poly-D-Lysine coated 384 wells Microtiter Plates in complete medium (25 μl/well).
24 h after seeding, the cell plates were washed with Tyrode assay buffer by the Microplate Washer and 10 μL of Tyrode assay buffer was left in each well.
Cells were then loaded with 10 μL/well of the Fluo-4 NW dye solution by CyBi®-Well pipettor. Each bottle of Fluo4-NW dye (Molecular Probes cat. #F36206, component A) was re-suspended in 8 mL of Tyrode assay buffer and supplemented with 100 μL of water-soluble probenecid (MolecularProbes cat.#F36206, component B).
Dye loaded cell plates were incubated for 1 h at room temperature.
2. Compound Dilution Plate (FIG. 1), containing diluted test compounds, formulated as follows: […]
Column 1: wells containing Assay Buffer plus DMSO 0.5% final
Columns 3-22: wells containing Assay Buffer plus 0.5% DMSO final. To these wells the compounds to be tested were added at 3× concentration.
Column 23: alternating wells of Max Signal Control in second injection (Assay buffer) and Min Signal Control in second injection (Antagonist Capsazepine IC100, 50 μM) in Assay buffer plus 0.5% DMSO final;
Column 24: wells containing Capsazepine (Antagonist) at 8 concentrations in duplicate at final concentrations of 50 μM, 25 μM, 6.25 μM, 3.15 μM, 1.56 μM, 780 nM, […] in Assay buffer plus 0.5% DMSO final.
3. Activator Plate (FIG. 2), containing agonist Cooling Agent 10 at EC80, formulated as follows:
Column 1: Cooling Agent 10 (Agonist) at 8 concentrations dose response in duplicate at final concentrations of 100 μM, 31.6 μM, 10 μM, 3.16 μM, 1 μM, 316 nM, 100 nM, 31.6 nM in Assay buffer;
Columns 2-24: Cooling Agent 10 (Agonist) at EC80 (3 fold concentrated, 20 μM final) in Assay buffer.
The test was carried out according to a procedure comprising the following steps:
1. The samples contained in the wells of the Compound Plate were added to the corresponding wells of the Assay Plate by the FLIPR^TETRA, thus resulting in the addition in Columns 3-22 of the test compounds at 3× concentration to the cells of the assay plates. No mixing was performed in the assay wells and the signal of the emitted fluorescence was recorded for 300 seconds. 2. The samples contained in the wells of the Activator Plate were added to the corresponding wells of the Assay Plate by the FLIPR^TETRA, thus resulting in the addition in Columns 3-22 of the Assay Plate of the agonist compound in addition to the test compounds. The signal of the emitted fluorescence was recorded for 180 seconds.

T5 sequence (Q7Z2W7 whole entry): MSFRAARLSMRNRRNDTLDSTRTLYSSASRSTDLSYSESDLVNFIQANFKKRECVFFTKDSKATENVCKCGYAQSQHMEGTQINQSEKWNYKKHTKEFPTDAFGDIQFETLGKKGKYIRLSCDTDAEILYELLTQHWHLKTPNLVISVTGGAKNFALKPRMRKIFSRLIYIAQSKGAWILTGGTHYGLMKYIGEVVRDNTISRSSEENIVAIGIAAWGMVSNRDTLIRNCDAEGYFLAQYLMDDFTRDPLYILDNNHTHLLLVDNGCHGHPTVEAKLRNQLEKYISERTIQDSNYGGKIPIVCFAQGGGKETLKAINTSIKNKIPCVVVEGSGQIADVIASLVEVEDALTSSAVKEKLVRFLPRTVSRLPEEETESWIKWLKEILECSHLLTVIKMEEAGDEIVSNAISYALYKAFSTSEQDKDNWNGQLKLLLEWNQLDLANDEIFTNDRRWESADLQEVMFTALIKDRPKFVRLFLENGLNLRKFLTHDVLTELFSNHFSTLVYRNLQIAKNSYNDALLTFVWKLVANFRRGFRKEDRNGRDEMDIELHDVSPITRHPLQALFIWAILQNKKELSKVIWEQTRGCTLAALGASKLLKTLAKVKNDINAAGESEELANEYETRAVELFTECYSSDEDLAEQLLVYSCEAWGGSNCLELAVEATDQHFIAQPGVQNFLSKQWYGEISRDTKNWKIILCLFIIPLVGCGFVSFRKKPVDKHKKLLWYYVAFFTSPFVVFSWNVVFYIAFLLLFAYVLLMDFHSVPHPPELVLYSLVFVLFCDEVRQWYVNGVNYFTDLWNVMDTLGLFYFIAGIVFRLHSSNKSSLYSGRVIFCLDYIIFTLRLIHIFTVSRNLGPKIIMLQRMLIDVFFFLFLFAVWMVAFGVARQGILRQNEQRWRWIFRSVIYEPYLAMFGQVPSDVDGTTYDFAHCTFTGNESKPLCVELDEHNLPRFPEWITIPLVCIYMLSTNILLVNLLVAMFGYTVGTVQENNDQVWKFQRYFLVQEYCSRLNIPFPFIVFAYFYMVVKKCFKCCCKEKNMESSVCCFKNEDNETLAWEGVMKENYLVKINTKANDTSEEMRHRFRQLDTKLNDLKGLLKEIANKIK
Chain of TRPV4 (Q9HBA0 whole entry, species assumed): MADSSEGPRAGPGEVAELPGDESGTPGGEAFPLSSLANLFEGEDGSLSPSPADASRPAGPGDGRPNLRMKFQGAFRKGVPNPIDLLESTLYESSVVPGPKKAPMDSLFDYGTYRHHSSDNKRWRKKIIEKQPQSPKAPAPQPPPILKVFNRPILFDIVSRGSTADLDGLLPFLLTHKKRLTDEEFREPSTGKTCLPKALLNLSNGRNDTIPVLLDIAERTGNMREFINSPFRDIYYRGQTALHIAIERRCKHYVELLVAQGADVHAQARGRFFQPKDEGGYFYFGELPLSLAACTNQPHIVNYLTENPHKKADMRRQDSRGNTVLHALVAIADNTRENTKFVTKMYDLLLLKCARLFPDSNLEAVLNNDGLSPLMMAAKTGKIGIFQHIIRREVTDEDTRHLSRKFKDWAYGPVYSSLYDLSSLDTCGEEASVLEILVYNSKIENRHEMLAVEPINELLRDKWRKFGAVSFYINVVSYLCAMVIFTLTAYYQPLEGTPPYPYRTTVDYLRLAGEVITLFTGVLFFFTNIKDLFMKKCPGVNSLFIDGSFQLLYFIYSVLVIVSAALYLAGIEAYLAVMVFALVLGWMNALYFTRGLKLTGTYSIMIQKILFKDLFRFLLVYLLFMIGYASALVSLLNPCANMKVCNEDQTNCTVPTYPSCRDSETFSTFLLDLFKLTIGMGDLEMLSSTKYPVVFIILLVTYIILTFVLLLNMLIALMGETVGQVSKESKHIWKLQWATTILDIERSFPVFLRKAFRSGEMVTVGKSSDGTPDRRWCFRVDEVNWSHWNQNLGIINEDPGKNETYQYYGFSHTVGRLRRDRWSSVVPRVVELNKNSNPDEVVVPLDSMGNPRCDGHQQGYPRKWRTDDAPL
T3 sequence (P08588 whole entry): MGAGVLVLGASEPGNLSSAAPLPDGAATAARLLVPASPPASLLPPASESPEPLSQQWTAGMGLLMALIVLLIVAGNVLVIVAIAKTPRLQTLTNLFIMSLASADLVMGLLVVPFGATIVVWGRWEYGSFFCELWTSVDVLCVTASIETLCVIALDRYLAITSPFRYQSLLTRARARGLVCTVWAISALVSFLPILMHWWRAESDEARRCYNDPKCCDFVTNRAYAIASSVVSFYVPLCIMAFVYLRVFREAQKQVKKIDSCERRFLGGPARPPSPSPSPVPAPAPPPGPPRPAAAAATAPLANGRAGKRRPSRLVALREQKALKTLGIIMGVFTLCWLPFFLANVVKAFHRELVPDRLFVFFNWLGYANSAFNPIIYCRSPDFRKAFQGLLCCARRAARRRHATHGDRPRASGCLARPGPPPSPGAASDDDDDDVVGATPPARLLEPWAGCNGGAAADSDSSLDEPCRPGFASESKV
Chain of CYP 2C19 (P33261 whole entry): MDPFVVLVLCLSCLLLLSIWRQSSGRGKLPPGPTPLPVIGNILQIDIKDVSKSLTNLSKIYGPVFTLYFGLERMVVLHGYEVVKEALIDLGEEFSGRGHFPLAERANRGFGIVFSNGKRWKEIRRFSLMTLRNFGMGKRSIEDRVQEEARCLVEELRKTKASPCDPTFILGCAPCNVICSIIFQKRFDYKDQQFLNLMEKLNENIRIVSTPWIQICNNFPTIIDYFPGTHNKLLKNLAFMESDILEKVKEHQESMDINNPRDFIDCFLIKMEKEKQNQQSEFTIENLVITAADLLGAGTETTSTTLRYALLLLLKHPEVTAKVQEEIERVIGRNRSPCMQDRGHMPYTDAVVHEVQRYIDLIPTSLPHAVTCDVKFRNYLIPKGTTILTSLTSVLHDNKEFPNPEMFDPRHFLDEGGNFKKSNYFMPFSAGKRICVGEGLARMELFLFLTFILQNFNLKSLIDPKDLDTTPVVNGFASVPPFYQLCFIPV
Chain of CYP 1A2 (P05177 whole entry): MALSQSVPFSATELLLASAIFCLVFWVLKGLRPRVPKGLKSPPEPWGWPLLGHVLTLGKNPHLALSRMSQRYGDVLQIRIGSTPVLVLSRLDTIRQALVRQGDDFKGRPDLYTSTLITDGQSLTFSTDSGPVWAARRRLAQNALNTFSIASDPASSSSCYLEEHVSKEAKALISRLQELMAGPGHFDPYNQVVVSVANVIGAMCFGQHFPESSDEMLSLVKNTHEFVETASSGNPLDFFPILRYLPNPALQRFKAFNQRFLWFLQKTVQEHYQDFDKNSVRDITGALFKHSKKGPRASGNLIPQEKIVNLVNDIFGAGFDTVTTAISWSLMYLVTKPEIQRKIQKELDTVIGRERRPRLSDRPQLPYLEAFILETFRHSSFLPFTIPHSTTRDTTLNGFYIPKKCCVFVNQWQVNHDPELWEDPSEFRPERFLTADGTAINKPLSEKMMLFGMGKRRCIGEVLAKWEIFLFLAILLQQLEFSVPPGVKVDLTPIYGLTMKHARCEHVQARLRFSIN
Chain of CYP 3A4 (P08684 whole entry): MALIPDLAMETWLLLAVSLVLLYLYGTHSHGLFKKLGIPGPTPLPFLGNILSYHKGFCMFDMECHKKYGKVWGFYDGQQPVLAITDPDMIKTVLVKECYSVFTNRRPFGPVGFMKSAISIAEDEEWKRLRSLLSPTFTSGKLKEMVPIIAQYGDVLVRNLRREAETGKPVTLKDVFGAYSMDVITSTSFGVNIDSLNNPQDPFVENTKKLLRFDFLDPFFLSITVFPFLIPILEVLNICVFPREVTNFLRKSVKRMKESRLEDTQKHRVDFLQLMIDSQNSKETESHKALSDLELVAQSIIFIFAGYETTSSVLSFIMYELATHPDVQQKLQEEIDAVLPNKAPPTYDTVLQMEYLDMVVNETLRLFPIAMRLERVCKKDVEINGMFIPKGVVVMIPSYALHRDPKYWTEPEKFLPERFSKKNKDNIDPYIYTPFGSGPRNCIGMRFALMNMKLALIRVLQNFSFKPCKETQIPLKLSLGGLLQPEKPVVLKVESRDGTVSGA

With `CCOC(=O)c1sc(-c2cccc(F)c2)nc1O` [Compound 10, ethyl 2-(3-fluorophenyl)-4-hydroxy-1,3-thiazole-5-carboxylate], the remaining activity at 10 µM in [1] turned out to be 98%; in [2], 90%; in [3], 82%; in data set [4] it was 102%. Moreover, the half-life in data set [5] was 0.833 h. For the same molecule, the inhibition at 1 µM at TRPV4 is 2%. Moreover, the inhibition at 10 µM at TRPV4 stood at 8.9%. The “CYP (% inhibition) @10 μM, 3A4” value on CYP 3A4 is reported as under 5%. Also, the fraction unbound at 10 μM in “Plasma Protein Binding [6]” was 0.02; in “Plasma Protein Binding [8]” it was 0.03. Also, on CYP 1A2, the “CYP (% inhibition) @10 μM, 1A2” value is under 5%. Besides, the IC50 against TRPM8 [7] is 0.2 nM; on TRPM8 [9], 1000 nM. Also, the “CYP (% inhibition) @10 μM, 2C19” value on CYP 2C19 was under 5%.
Regarding `O=C(O)c1sc(-c2ccc(Cl)cc2)nc1OCc1ccc(Cl)cc1` [Compound 45, 4-[(4-chlorobenzyl)oxy]-2-(4-chlorophenyl)-1,3-thiazole-5-carboxylic acid], the remaining activity at 10 µM in [1] was 95%; in [2] it was 96%; in data set [3], 90.5%; in data set [4], 86.7%. In [5], the half-life amounted to 4 h. Also, the bioavailability in data set [5] (oral bioavailability) came out at 60%. Also, the inhibition at 1 µM on TRPV4 is 5.1%. In addition, the inhibition at 10 µM at TRPV4 is 3.1%. For the same molecule, on CYP 3A4, the “CYP (% inhibition) @10 μM, 3A4” value was under 5%. The fraction unbound at 10 μM in “Plasma Protein Binding [6]” and in “Plasma Protein Binding [8]” was 0.01 each time. Further, the “CYP (% inhibition) @10 μM, 1A2” value at CYP 1A2 was under 5%. Further, the results for the IC50 against TRPM8 [7] and at TRPM8 [9] were 1000 nM and 0.2 nM, respectively. Further, the “CYP (% inhibition) @10 μM, 2C19” value at CYP 2C19 is reported as under 5%.
